Assays:
[1] = stabilisation of the lachrymal film when inserting contact lenses; conditions: when/after inserting the contact lenses
Description: Dexpanthenol, an alcohol of pantothenic acid, also called Provitamin B5, D-pantothenyl alcohol or D-panthenol, has been used for a long time for healing wounds or in the field of medicinal skin care. […] Vortex motion of the lachrymal liquid can occur through the insertion of contact lenses, namely because of mechanical eruption or through surface-active substances optionally present in the contact lens solution and can lead to severe loss of the aqueous lachrymal layer. […] This guards against the appearance of dryness, which can lead to a reduced lachrymal film.
The addition of D-sorbit to adjust the tonicity of contact lens care products is known. GB 2,205,175 and U.S. Pat. No. 3,888,782 describe sorbit as a carrier material for the preparation of powder mixtures for contact lens care products. […] This guards against the appearance of dryness, which can lead to a reduced lachrymal film. […] Negative effects caused by surface-active substances and preservatives are reduced and the contact lenses are prevented from drying out.

[2] = cytotoxicity studies on addition of dexpanthenol and D-sorbit; assay type: cell-based; conditions: addition of sorbit to compositions containing antimicrobial compounds, e.g. PHMB
[3] = antimicrobial (microbiological) efficacy of contact lens care solutions; conditions: addition of sorbit to contact lens care compositions

Row | lachrymal film stabilisation [1] | Structure (SMILES) | toxicity [2] | effect on microbiological efficacy of antimicrobial compounds present, e.g. PHMB [3]
1 | stabilises the lachrymal film | CC(C)(CO)[C@@H](O)C(=O)NCCCO [dexpanthenol] |  | 
2 |  | OC[C@@H](O)[C@@H](O)[C@H](O)[C@@H](O)CO [sorbit, D-sorbit] | without resulting in negative effects as regards toxicity | substantially increases the microbiological efficacy
